# Values of other authors as cited in patent publication US7527814B2, “Process for the isolation of calliterpenone” (Council of Scientific and Industrial Research, priority 2006, dated 2009).
# Legend:
# [1] = tested on: plant growth; conditions: if used in a particular method
# [2] = tested on: growth retardant effects produced by allelochemicals; conditions: Singh et al., U.S. Pat. No. 6,673,749 (2004)
structure (smiles),measurement,setting,value
"CC1(C)C(=O)CC[C@@]2(C)[C@H]1CC[C@@]13C[C@H](CC[C@@H]12)[C@@](O)(CO)C3 [calliterpenone, 16α,17 dihydroxy-3-oxo phyllocladane]",plant growth promoting effect compared with GA3,[1],better plant growth promoting effect than GA3
same,effect on growth retardant effects produced by allelochemicals,[2],antagonizes the growth retardant effects produced by allelochemicals
